Laboratory results published in patent US10988522B2, “Proteolically resistant cyclotides with angiotensin 1-7 like activity” (University of Southern California, priority 2016, dated 2021).

Legend:
[1] = tested on: human lung cancer cells; details: through activation of MAS1; cited from earlier work
[2] = tested on: cyclooxygenase 1 (COX-1); details: same xenograft tumor; cited from earlier work
[3] = tested on: human lung adenocarcinoma xenografts; details: cited from earlier work
[4] = tested on: cyclooxygenase-2 (COX-2); details: xenograft tumor; cited from earlier work
[5] = target: T1, recombinant human MAS1 (Homo sapiens, UniProt P04201); assay: MAS1 activation: cell-based fluorescence assay of NO release in CHO cells stably transfected with MAS1; details: for intracellular concentration of NO in the presence of MAS1 antagonist A779: A779 at 0.1 μM for 15 min before addition; for intracellular concentration of NO (fluorescence): no antagonist, 2 hours
T1 construct: expressed in transfected cells; host or cells: CHO cells, stably transfected with pTEJ-8 vector
T1 sequence (P04201 1-325): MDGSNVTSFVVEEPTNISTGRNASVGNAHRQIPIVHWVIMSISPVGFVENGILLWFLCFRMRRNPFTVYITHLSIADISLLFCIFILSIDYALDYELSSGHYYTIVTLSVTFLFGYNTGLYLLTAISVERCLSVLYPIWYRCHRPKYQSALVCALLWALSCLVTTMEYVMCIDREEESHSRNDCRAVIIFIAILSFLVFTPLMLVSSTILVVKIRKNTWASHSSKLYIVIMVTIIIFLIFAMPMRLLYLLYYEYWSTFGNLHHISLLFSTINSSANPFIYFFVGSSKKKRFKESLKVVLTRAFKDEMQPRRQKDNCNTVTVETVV
Protocol: CHO cells stably transfected with pTEJ-8 vector expressing recombinant human MAS1 clone are grown to confluency. After washing, cells are incubated for a short time in 700 μL of supplemented Tyrode's salts containing 10 μM 2-phenyl-4,4,5,5-tetramethylimidazoline-1-oxyl-3-oxide (PTIO), 100 μM 2,3-diaminonaftalene (DAN), and 1 mM L-arginine. When using antagonist for competition assays, cells are exposed to MAS1 antagonist A779 (D-Ala^7-AT 1-7) at 0.1 μM for 15 min before addition of the cyclotides to be tested. Different concentrations of the cyclotides to be analyzed are added to the cell medium and the plates are agitated for 1 min before being placed into the incubator for 2 hours. After 2 hours, the cellular supernatants are transferred to opaque 96 well plates, and the amount of released NO is measured by fluorescence (λex=380 nm, λem=425 nm).

[6] = Protocol: This was accomplished by incubating the corresponding peptides in human serum at 37° C. The quantitative analysis of undigested polypeptides was performed using liquid chromatography coupled with tandem mass spectrometry (LC-MS/MS). Naturally occurring MCoTI-cyclotides present a very rigid structure, which makes them extremely stable to proteolytic degradation.
Human serum was spun down at 15,000 rpm for 10 min to separate the lipid components. Peptides (about 15 μg dissolved in 15 μl PBS) were mixed with 150 μl human serum and incubated in a 37° C. water bath. Aliquot samples (15 μL) were taken at different time points and serum protein were precipitated with about 70% MeCN at 4° C. for 10 min. The supernatant was separated, lyophilized, dissolved in 5% MeCN in water containing 0.1% formic acid, and analyzed by HPLC-MS/MS.

| Molecule | serum-stimulated growth of human lung cancer cells [1] | COX-1 activity [2] | tumor growth [3] | COX-2 activity [4] | intracellular concentration of NO in the presence of MAS1 antagonist A779 ([5]; MAS1-transfected CHO cells) | intracellular concentration of NO (fluorescence) ([5]; MAS1-transfected CHO cells) | τ1/2 in human serum [6] [min] | MAS1 agonist activity (summary statement) ([5]; MAS1-transfected CHO cells) | activity relative to that of peptide AT1-7 ([5]; at 10 nM, NO release assay) |
| --- | --- | --- | --- | --- | --- | --- | --- | --- | --- |
| CC[C@H](C)[C@H](NC(=O)[C@H](Cc1ccc(O)cc1)NC(=O)[C@@H](NC(=O)[C@H](CCCNC(=N)N)NC(=O)[C@@H](N)CC(=O)O)C(C)C)C(=O)N[C@@H](Cc1c[nH]cn1)C(=O)N1CCC[C@H]1C(=O)O [AT1-7, DRVYIHP] | reduce serum-stimulated growth of human lung cancer cells both in vitro and in vivo | no effect | inhibit tumor growth | reduction in cyclooxygenase-2 (COX-2) activity | A similar profile was obtained | increase the intracellular concentration of NO in a dose dependent manner | 44 ± 3 | – | – |
| GGVCPKILQRCRRDSDCPGACICRGNGYCGSGXRVYIHE [MCo-AT1-7, MCoTI-I cyclotide with AT1-7-derived peptide (Asp1 to diaminopropionic acid, Pro7 to Glu) grafted onto loop 6 via two isopeptide bonds] | – | – | – | – | no increase in the intracellular concentration of NO was detected | increase the intracellular concentration of NO in a dose dependent manner | – | potent MAS1 agonist, with similar activity to that of the peptide AT1-7 | about 90% |
